Data taken from publication PMC8286840, “Identifying SARS-CoV-2 antiviral compounds by screening for small molecule inhibitors of Nsp3 papain-like protease” (Biochemical Journal, 2021).
Structures can show the parent of a compound that is named as a salt. Where two headings read alike, the source gives them in different places.

Key:
[1] = target: T1, SARS-CoV-2 PLpro (nsp3 1564–1878) (Severe acute respiratory syndrome coronavirus 2, UniProt P0DTD1); assay: biochemical; parameters: FRET-quenched peptide (Pro3) cleavage by PLpro, 10 min pre-incubation, slope over 20 min, normalised to no-compound control; details: read-out: % of control remaining
[2] = target: T1, SARS-CoV-2 PLpro (nsp3 1564–1878); assay: biochemical; parameters: FRET-quenched peptide (Pro3) cleavage by PLpro, 10 min pre-incubation, slope over 20 min, normalised to no-compound control; details: read-out: % of control remaining; remark: listed apart in the source

CCN[C@@H]1C[C@H](N)[C@@H](O[C@H]2OC(CN)=CC[C@H]2N)[C@H](O)[C@H]1O[C@H]1OC[C@](C)(O)[C@H](NC)[C@H]1O [Netilmicin Sulfate]
remaining activity at 3.75 µM ([1]; Well no.=4696, high concentration screen): 101% | remaining activity at 1.25 µM ([2]; Well no.=4696, low concentration screen): 102%

Cc1cc(N)c2ccccc2[n+]1CCCCCCCCCC[n+]1c(C)cc(N)c2ccccc21 [Dequalinium dichloride]
remaining activity at 3.75 µM ([1]; Well no.=449, high concentration screen): 96.8% | remaining activity at 1.25 µM ([2]; Well no.=449, low concentration screen): 101%

C[n+]1cc2c3c(ccc2c2ccc4cc5c(cc4c21)OCO5)OCO3 [Sanguinarine]
remaining activity at 3.75 µM ([1]; Well no.=3779, high concentration screen): 90.1% | remaining activity at 1.25 µM ([2]; Well no.=3779, low concentration screen): 94.3%

COc1ccc(-c2nc3cc(C4=NNC(=O)CC4C)ccc3[nH]2)cc1 (stereo not shown) [Pimobendan (Vetmedin)]
remaining activity at 3.75 µM ([1]; Well no.=4957, high concentration screen): 103% | remaining activity at 1.25 µM ([2]; Well no.=4957, low concentration screen): 100%

Cc1cc(Nc2ccc(NC(=O)c3ccc(Nc4ccnc5ccccc45)cc3)cc2)nc(N)n1 [SGI-1027]
remaining activity at 3.75 µM ([1]; Well no.=5518, high concentration screen): 102% | remaining activity at 1.25 µM ([2]; Well no.=5518, low concentration screen): 105%

C[C@]12CCC(=O)C=C1CC[C@@H]1[C@@H]2CC[C@@]2(C)[C@H]1CC[C@]2(O)C(=O)CO [Cortexolone]
remaining activity at 3.75 µM ([1]; Well no.=1509, high concentration screen): 93% | remaining activity at 1.25 µM ([2]; Well no.=1509, low concentration screen): 93.1%

C[C@H](O)[C@H](O)c1cnc2nc(N)[nH]c(=O)c2n1 [6-Biopterin]
remaining activity at 3.75 µM ([1]; Well no.=6447, high concentration screen): 95.8% | remaining activity at 1.25 µM ([2]; Well no.=6447, low concentration screen): 99.6%

Cc1cn([C@@H]2O[C@H](CO)[C@@H](N=[N+]=[N-])[C@H]2O)c(=O)nc1N [3'-Azido-3'-deoxy-5-methylcytidine]
remaining activity at 3.75 µM ([1]; Well no.=7804, high concentration screen): 97.5% | remaining activity at 1.25 µM ([2]; Well no.=7804, low concentration screen): 98.2%

CC(N)(COP(=O)(O)O)C(=O)O (stereo not shown) [2-methyl-O-phosphonoserine]
remaining activity at 3.75 µM ([1]; Well no.=5427, high concentration screen): 101% | remaining activity at 1.25 µM ([2]; Well no.=5427, low concentration screen): 96.2%

COc1ccc(-c2cc(=O)c3ccc(O)cc3o2)cc1 [Pratol]
remaining activity at 3.75 µM ([1]; Well no.=3829, high concentration screen): 96.6% | remaining activity at 1.25 µM ([2]; Well no.=3829, low concentration screen): 97.5%

COc1cc2c(cc1OC)[C@H]1[C@@H](C)c3ccc(OC)c(OC)c3CN1CC2 [Corydaline]
remaining activity at 3.75 µM ([1]; Well no.=3252, high concentration screen): 102% | remaining activity at 1.25 µM ([2]; Well no.=3252, low concentration screen): 101%

Cc1ncc(CNC(=O)N(CCCl)N=O)c(N)n1 [Nimustine hydrochloride]
remaining activity at 3.75 µM ([1]; Well no.=861, high concentration screen): 97.2% | remaining activity at 1.25 µM ([2]; Well no.=861, low concentration screen): 96.9%

c1ccc([C@@H]2CCC[C@@H]2NC2=NCCCCCCCCCCC2)cc1 [MDL 12,330A hydrochloride]
remaining activity at 3.75 µM ([1]; Well no.=993, high concentration screen): 101% | remaining activity at 1.25 µM ([2]; Well no.=993, low concentration screen): 103%

Nc1nc2c([nH]c(=O)n2[C@H]2C[C@H](O)[C@@H](CO)O2)c(=O)[nH]1 [8-Hydroxy-2'-deoxyguanosine]
remaining activity at 3.75 µM ([1]; Well no.=7113, high concentration screen): 105% | remaining activity at 1.25 µM ([2]; Well no.=7113, low concentration screen): 105%

C[N+]1(C)[C@@H]2CC[C@H]1C[C@@H](OC(=O)C(CO)c1ccccc1)C2 (stereo partly shown) [Atropine methyl nitrate]
remaining activity at 3.75 µM ([1]; Well no.=245, high concentration screen): 100% | remaining activity at 1.25 µM ([2]; Well no.=245, low concentration screen): 99.7%

C[C@@H]1O[C@H](C[N+](C)(C)C)C[C@H]1O [(+)-Muscarine chloride]
remaining activity at 3.75 µM ([1]; Well no.=3254, high concentration screen): 99.2% | remaining activity at 1.25 µM ([2]; Well no.=3254, low concentration screen): 97.9%

Cc1ccc(F)cc1C(=O)Nc1ccc(C(=O)N2Cc3cccn3Cc3ccccc32)c(Cl)c1 [Lixivaptan]
remaining activity at 3.75 µM ([1]; Well no.=6957, high concentration screen): 88.9% | remaining activity at 1.25 µM ([2]; Well no.=6957, low concentration screen): 91.5%

CC[C@@H](C)C(=O)O[C@H]1[C@H](O)[C@H]2[C@@H](CN3C[C@@H](C)CC[C@H]3[C@@]2(C)O)[C@@H]2C[C@]34O[C@]5(O)[C@@H](OC(=O)[C@](C)(O)[C@@H](C)O)CC[C@@]3(C)[C@@H]5[C@@H](OC(C)=O)[C@@H](OC(C)=O)[C@H]4[C@@]21O (stereo in doubt) [Protoveratrine B]
remaining activity at 3.75 µM ([1]; Well no.=3454, high concentration screen): 98.3% | remaining activity at 1.25 µM ([2]; Well no.=3454, low concentration screen): 97.9%

CN1Cc2c(N)cccc2C(c2ccccc2)C1 (stereo not shown) [Nomifensine (maleate)]
remaining activity at 3.75 µM ([1]; Well no.=8395, high concentration screen): 95.9% | remaining activity at 1.25 µM ([2]; Well no.=8395, low concentration screen): 97.9%

CCOc1ccccc1O[C@H](c1ccccc1)[C@H]1CNCCO1 (racemic) [Reboxetine mesylate]
remaining activity at 3.75 µM ([1]; Well no.=4989, high concentration screen): 91.1% | remaining activity at 1.25 µM ([2]; Well no.=4989, low concentration screen): 94.7%

O=c1[nH]c(=O)c2nc3ccccc3nc2[nH]1 [Alloxazine]
remaining activity at 3.75 µM ([1]; Well no.=354, high concentration screen): 88.5% | remaining activity at 1.25 µM ([2]; Well no.=354, low concentration screen): 90.3%

c1ccc(CCCN2CCN(CCOC(c3ccccc3)c3ccccc3)CC2)cc1 [GBR-12935 dihydrochloride]
remaining activity at 3.75 µM ([1]; Well no.=765, high concentration screen): 87.4% | remaining activity at 1.25 µM ([2]; Well no.=765, low concentration screen): 91%

COc1cc(C(=O)NS(=O)(=O)c2ccccc2C)ccc1Cc1cn(C)c2ccc(NC(=O)OC3CCCC3)cc12 [Zafirlukast]
remaining activity at 3.75 µM ([1]; Well no.=8579, high concentration screen): 101% | remaining activity at 1.25 µM ([2]; Well no.=1762, low concentration screen): 99.5% | remaining activity at 1.25 µM ([2]; Well no.=8579, low concentration screen): 102%

CCO[C@H]1CN([C@H]2CC[C@@](O)(c3ccc4c(c3)OCO4)CC2)C[C@@H]1NC(=O)CNC(=O)c1cccc(C(F)(F)F)c1 [INCB3344]
remaining activity at 3.75 µM ([1]; Well no.=8605, high concentration screen): 102% | remaining activity at 1.25 µM ([2]; Well no.=8605, low concentration screen): 108%

C[C@H]1CC[C@@H](C(C)(C)O)CC2=C1CC[C@@H]2C [(-)-Guaiol]
remaining activity at 3.75 µM ([1]; Well no.=3076, high concentration screen): 99.3% | remaining activity at 1.25 µM ([2]; Well no.=3076, low concentration screen): 98.4%

O=C1C[C@@H]2OCC=C3CN4CC[C@]56c7ccccc7N1[C@H]5[C@H]2[C@H]3C[C@H]46
remaining activity at 3.75 µM [1]: 94.7% | remaining activity at 1.25 µM [2]: 94.4%

Cn1cc(-c2ccc3nnc(Sc4ccc5ncccc5c4)n3n2)cn1 [SGX-523]
remaining activity at 3.75 µM ([1]; Well no.=4665, high concentration screen): 106% | remaining activity at 1.25 µM ([2]; Well no.=4665, low concentration screen): 104%

NC(=O)c1cccnc1 [Nicotinamide]
remaining activity at 3.75 µM ([1]; Well no.=6305, high concentration screen): 99.5% | remaining activity at 1.25 µM ([2]; Well no.=6305, low concentration screen): 102%

NC(=O)N[C@@H](CCC(=O)O)C(=O)O [Carglumic Acid]
remaining activity at 3.75 µM ([1]; Well no.=7594, high concentration screen): 102% | remaining activity at 1.25 µM ([2]; Well no.=7594, low concentration screen): 99.7%

O=C1N=C(O)NC1(c1ccccc1)c1ccccc1 [Phenytoin sodium]
remaining activity at 3.75 µM ([1]; Well no.=403, high concentration screen): 104% | remaining activity at 1.25 µM ([2]; Well no.=403, low concentration screen): 104%

Clc1ccc(CCC(Cn2ccnc2)Sc2c(Cl)cccc2Cl)cc1 (stereo not shown) [Butoconazole nitrate]
remaining activity at 3.75 µM ([1]; Well no.=2204, high concentration screen): 93.9% | remaining activity at 1.25 µM ([2]; Well no.=2204, low concentration screen): 96.3%

Nc1ccn([C@H]2C[C@H](O)[C@@H](COP(=O)(O)OP(=O)(O)OP(=O)(O)O)O2)c(=O)n1 [Deoxycytidine triphosphate]
remaining activity at 3.75 µM ([1]; Well no.=7355, high concentration screen): 100% | remaining activity at 3.75 µM ([1]; Well no.=7870, high concentration screen): 102% | remaining activity at 1.25 µM ([2]; Well no.=7355, low concentration screen): 99.9% | remaining activity at 1.25 µM ([2]; Well no.=7870, low concentration screen): 101%

C=CC(=O)Nc1cccc(Sc2nc(Nc3ccc(N4CCN(C)CC4)cc3)ncc2Cl)c1 [WZ8040]
remaining activity at 3.75 µM ([1]; Well no.=4717, high concentration screen): 107% | remaining activity at 1.25 µM ([2]; Well no.=4717, low concentration screen): 107%

CN1[C@@H]2CC[C@H]1C[C@@H](OC(=O)c1c[nH]c3ccccc13)C2 [Tropisetron (Hydrochloride)]
remaining activity at 3.75 µM ([1]; Well no.=7467, high concentration screen): 102% | remaining activity at 1.25 µM ([2]; Well no.=7467, low concentration screen): 100%

CC(C)NCCCn1c(Sc2cc3c(cc2I)OCO3)nc2c(N)ncnc21 [PU-H71]
remaining activity at 3.75 µM ([1]; Well no.=8772, high concentration screen): 95.7% | remaining activity at 1.25 µM ([2]; Well no.=8772, low concentration screen): 98.2%
